Measurements reported in patent US6825185B2, “Substituted aryl compounds as novel cyclooxygenase-2 selective inhibitors, compositions and methods of use” (NitroMed, Inc., priority 2000, dated 2004).

Experiments:
COX-2 = target: T1, COX-2 (Homo sapiens, UniProt P35354); assay: COX-2 enzyme activity in human whole blood (LPS induced, thromboxane B2 EIA); type: cell-based; parameters: Human blood (≈50 mL) from male or female donors who had not received any aspirin or NSAIDs for 14 days; endogenous in cells; host or cells: human whole blood from donors, LPS-induced; conditions: test compound at 10 μM
T1 sequence (P35354 18-604): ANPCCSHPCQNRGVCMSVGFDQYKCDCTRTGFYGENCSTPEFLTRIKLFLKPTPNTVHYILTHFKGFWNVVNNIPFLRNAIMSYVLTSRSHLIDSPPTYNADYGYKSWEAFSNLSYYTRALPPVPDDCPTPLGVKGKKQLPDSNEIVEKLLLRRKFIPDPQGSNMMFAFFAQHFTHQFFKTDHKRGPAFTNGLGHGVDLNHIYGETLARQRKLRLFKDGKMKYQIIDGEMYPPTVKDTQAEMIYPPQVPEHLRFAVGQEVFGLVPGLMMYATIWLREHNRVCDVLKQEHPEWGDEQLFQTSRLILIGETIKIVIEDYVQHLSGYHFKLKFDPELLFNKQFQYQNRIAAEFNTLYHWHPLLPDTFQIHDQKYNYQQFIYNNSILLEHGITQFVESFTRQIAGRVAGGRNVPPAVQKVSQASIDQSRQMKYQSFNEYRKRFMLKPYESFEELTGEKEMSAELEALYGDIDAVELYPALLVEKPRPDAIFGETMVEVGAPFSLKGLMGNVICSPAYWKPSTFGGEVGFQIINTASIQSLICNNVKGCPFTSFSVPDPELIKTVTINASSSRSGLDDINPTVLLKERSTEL
Description: (§1) Human blood (≈50 mL) from male or female donors who had not received any aspirin or NSAIDs for 14 days was collected at two local area blood donor centers and placed in polypropylene syringes containing sodium heparin (20 units per mL blood, final concentration). The blood was transported to the laboratory on ice packs and used within 1.5 hours of collection. Upon receipt in the laboratory, the blood was allowed to come to room temperature for 15 minutes prior to distribution in 1 mL aliquots per well of 24 well tissue culture plates. The plates were then placed on a gently rotating platform shaker in a 5% CO2 incubator at 37° C. for 15 minutes. Test compounds were dissolved in DMSO, at 1000 fold the final desired concentration, and further diluted, as indicated, in DMSO. One μL of each dilution of the test compound was added per well, in duplicate wells; wells not receiving test compound (e.g., basal, background or control wells) received 1 μL DMSO.
To induce COX-2, lipopolysaccharide (LPS) from E. coli (LPS, serotype 026:B6 or serotype 0127:B8, Sigma Chemical Co., St. Louis, Mo., Catalogue No. L3755 or L3129, respectively) was added at 10 μg/mL (2 μL of 5 mg/mL LPS in DMSO) to appropriate wells 15 minutes after the addition of the test compound. […] (Again, basal, background or control wells not stimulated with A23187 received 1 μL of DMSO.) At 5 hours after the addition of the test compound, all incubations were terminated by placement on ice and the addition of 2 mM EGTA (100 μL of 20 mM EGTA, tetrasodium, in PBS (phosphate buffered saline) without Ca^++ and Mg^++, pH 7.2)). The resulting solutions, were transferred by polyethylene transfer pipettes to 15 mL polypropylene centrifuge tubes and centrifuged at 1200 g for 10 minutes at 4° C. One hundred μL of plasma was removed from each blood sample and added to 1 mL of methanol in new 15 mL polypropylene centrifuge tubes, vortexed, and stored overnight at −20° C. The next day, the samples were centrifuged at 2000 g for 10 minutes at 4° C. and the supernatants transferred to glass tubes and evaporated to dryness.

COX-1 = COX-1 (Homo sapiens, UniProt P23219); assay: COX-1 enzyme activity in human whole blood (A23187 stimulated, thromboxane B2 EIA); type: cell-based; parameters: Human blood (≈50 mL) from male or female donors who had not received any aspirin or NSAIDs for 14 days; endogenous in cells; host or cells: human whole blood from donors; conditions: for COX-1 Inhibition (% at 100 μM): test compound at 100 μM
COX-1, sequence (P23219 24-599): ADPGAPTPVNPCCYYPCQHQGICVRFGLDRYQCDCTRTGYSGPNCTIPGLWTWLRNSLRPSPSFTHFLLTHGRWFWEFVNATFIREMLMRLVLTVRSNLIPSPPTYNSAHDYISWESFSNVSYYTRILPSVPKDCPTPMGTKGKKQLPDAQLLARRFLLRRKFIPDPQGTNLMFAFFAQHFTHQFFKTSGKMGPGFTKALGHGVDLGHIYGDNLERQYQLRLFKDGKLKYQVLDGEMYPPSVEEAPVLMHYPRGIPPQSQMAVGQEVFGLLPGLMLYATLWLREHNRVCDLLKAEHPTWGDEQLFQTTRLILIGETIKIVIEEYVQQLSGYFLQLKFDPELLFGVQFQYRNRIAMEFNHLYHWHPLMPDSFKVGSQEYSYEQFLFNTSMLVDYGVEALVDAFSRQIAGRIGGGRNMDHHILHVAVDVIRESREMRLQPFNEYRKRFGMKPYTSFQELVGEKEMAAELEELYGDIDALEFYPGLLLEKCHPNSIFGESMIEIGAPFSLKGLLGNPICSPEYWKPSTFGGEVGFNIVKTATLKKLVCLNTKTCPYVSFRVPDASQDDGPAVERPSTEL
Description: as §1, with “The assay for COX-1 and COX-2 enzyme activity, in the human whole blood was performed as described in Brideau et al., Inflamm Res., 45: 68-74 (1996)). Human” for “Human”
To induce COX-2, lipopolysaccharide (LPS) from E. coli (LPS, serotype 026:B6 or serotype 0127:B8, Sigma Chemical Co., St. Louis, Mo., Catalogue No. L3755 or L3129, respectively) was added at 10 μg/mL (2 μL of 5 mg/mL LPS in DMSO) to appropriate wells 15 minutes after the addition of the test compound. (Basal or background wells not incubated with LPS received 2 μL of DMSO.) For the stimulation of COX-1, the calcium ionophore, A23187 (free acid from Sigma Chemical Co., St. Louis, Mo., Catalogue No. C7522) was added at 25 μM (1 μL of 25 mM stock in DMSO) to separate wells 4.5 hours after the addition of the test compound. (Again, basal, background or control wells not stimulated with A23187 received 1 μL of DMSO.) At 5 hours after the addition of the test compound, all incubations were terminated by placement on ice and the addition of 2 mM EGTA (100 μL of 20 mM EGTA, tetrasodium, in PBS (phosphate buffered saline) without Ca^++ and Mg^++, pH 7.2)). The resulting solutions, were transferred by polyethylene transfer pipettes to 15 mL polypropylene centrifuge tubes and centrifuged at 1200 g for 10 minutes at 4° C. One hundred μL of plasma was removed from each blood sample and added to 1 mL of methanol in new 15 mL polypropylene centrifuge tubes, vortexed, and stored overnight at −20° C. The next day, the samples were centrifuged at 2000 g for 10 minutes at 4° C. and the supernatants transferred to glass tubes and evaporated to dryness. The samples were assayed for thromboxane B2 using EIA kits supplied by Cayman Chemical Co. (Ann Arbor, Mich., Catalogue No. 519031) in duplicate wells after reconstitution with EIA Buffer and appropriate dilution (2000 fold for COX-1 and 500 fold for Cox-2 samples).

| Molecule | COX-2 Inhibition (% at 10 μM) (COX-2) [%] | COX-1 Inhibition (% at 100 μM) (COX-1) [%] | COX-1 Inhibition (% at 30 μM) (COX-1; test compound at 30 μM) |
| --- | --- | --- | --- |
| 1-(7-((3,5-Difluorophenyl)methyl)-2-((nitrooxy)methyl)(2H, 3H-benzo(3,4-e)1, 4-dioxin-6-yl))-4-(methylsulfonyl)benzene and 1-(7-((3,5-difluorophenyl)methyl)-3-((nitrooxy)methyl)(2H, 3H-benzo(e)1,4-dioxin-6-yl))-4-(methylsulfonyl)benzene [Example 19b] | 35 | 65 | – |
| 1-(7-((3,5-Difluorophenyl)methyl)-2-(hydroxymethyl)(2H, 3H-benzo(3,4-e)1,4-dioxin-6-yl))-4-(methylsulfonyl)benzene and 1-(7-((3,5-difluorophenyl)methyl)-3-(hydroxymethyl)(2H, 3H-benzo(e)1,4-dioxin-6-yl))-4-(methylsulfonyl)benzene [Example 19a] | 15 | 45 | – |
| CS(=O)(=O)c1ccc(-c2cc3c(cc2C(=O)C2CCCCC2)OCO3)cc1 [Example 2c, Cyclohexyl 6-(4-(methylsulfonyl)phenyl)(2H-benzo(d)1,3-dioxolan-5-yl) ketone] | 85 | – | 70 (at 30 μM) % |
| CS(=O)(=O)c1ccc(-c2cc3c(cc2Cc2ccccc2)OCO3)cc1 [Example 3c, 4-(Methylsulfonyl)-1-(6-benzyl(2H-benzo(3,4-d)1,3-dioxolan-5-yl))benzene] | 50 | 65 | – |
| CS(=O)(=O)c1ccc(-c2cc3c(cc2Cc2ccccc2F)OCO3)cc1 [Example 4c, 1-(6-((2-Fluorophenyl)methyl)(2H-benzo(3,4-d)1,3-dioxolan-5-yl))-4-(methylsulfonyl)benzene] | 60 | 70 | – |
| CS(=O)(=O)c1ccc(-c2cc3c(cc2C(=O)c2ccccc2F)OCO3)cc1 [Example 4d, 2-Fluorophenyl 6-(4-(methylsulfonyl)phenyl)(2H-benzo(d)1,3-dioxolan-5-yl) ketone] | 90 | 70 | – |
| CS(=O)(=O)c1ccc(-c2cc3c(cc2Cc2cccc(F)c2)OCO3)cc1 [Example 5c, 1-(6-((3-Fluorophenyl)methyl)(2H-benzo(3,4-d)1,3-dioxolan-5-yl))-4-(methylsulfonyl)benzene] | 90 | 55 | – |
| CS(=O)(=O)c1ccc(-c2cc3c(cc2C(=O)c2cccc(F)c2)OCO3)cc1 [Example 5d, 3-Fluorophenyl 6-(4-(methylsulfonyl)phenyl)(2H-benzo(d)1,3-dioxolan-5-yl) ketone] | 95 | 70 | – |
| CCOC(=O)/C(C)=C/c1cc2c(cc1-c1ccc(S(C)(=O)=O)cc1)OCO2 [Example 7d, Ethyl (2E)-2-methyl-3-(6-(4-(methylsulfonyl)phenyl)(2H-benzo(d)1,3-dioxolan-5-yl))prop-2-enoate] | 35 | 5 | – |
| C/C(=C\c1cc2c(cc1-c1ccc(S(C)(=O)=O)cc1)OCO2)CO [Example 7e, 1-(6-((1E)-3-Hydroxy-2-methylprop-1-enyl)(2H-benzo(3,4-d)1,3-dioxolan-5-yl))-4-(methylsulfonyl)benzene] | 10 | 20 | – |
| CS(=O)(=O)c1ccc(-c2cc3c(cc2CC2CCCCCC2)OCO3)cc1 [Example 11c, 4-(6-(Cycloheptylmethyl)(2H-benzo(3,4-d)1,3-dioxolan-5-yl))-1-(methylsulfonyl)benzene] | 80 | 40 | – |
| Cc1cccc(C(=O)c2cc3c(cc2-c2ccc(S(C)(=O)=O)cc2)OCO3)c1 [Example 12c, 3-Methylphenyl 6-(4-(methylsulfonyl)phenyl)(2H-benzo(d)1,3-dioxolan-5-yl)ketone] | 90 | 90 | – |
| CS(=O)(=O)c1ccc(-c2cc3c(cc2C(=O)c2cccc(CO[N+](=O)[O-])c2)OCO3)cc1 [Example 12d, 6-(4-(methylsulfonyl)phenyl)(2H-benzo(d)1,3-dioxolan-5-yl)3-((nitrooxy)methyl)phenylketone] | 20 | 20 | – |
| COc1cccc(C(=O)c2cc3c(cc2-c2ccc(S(C)(=O)=O)cc2)OCO3)c1 [Example 13c, 3-Methoxyphenyl-6-(4-(methylsulfonyl)phenyl)(2H-benzo(d)1,3-dioxolan-5-yl) ketone] | 75 | 90 | – |
| Cc1ccc(F)c(C(=O)c2cc3c(cc2-c2ccc(S(C)(=O)=O)cc2)OCO3)c1 [Example 14c, 2-Fluoro-5-methylphenyl6-(4-(methylsulfonyl)phenyl)(2H-benzo(d)1,3-dioxolan-5-yl)ketone] | 75 | 90 | – |
| CS(=O)(=O)c1ccc(-c2cc3c(cc2C(=O)c2cc(F)cc(F)c2)OCO3)cc1 [Example 16, 4-(1-(3′,5′-Difluorophenyl)-1-oxomethyl)-1,2-methylenedioxy-5-(4-methylsulfonylphenyl)benzene] | 100 | 50 | – |
